Tested on: 885512-296-R-J2-PDC complex spheroid growth, % test/control
Assay: Anticancer human tumor 885512-296-R-J2-PDC patient-derived breast carcinoma cell line growth inhibition [Asc]
Conditions: for IC50: curve of first compound; for viability, T/C: stronger effect = lower value
Summary of the method: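 Complex spheroids combining tumor cells with HUVEC endothelial cells and human MSCs, at 37 degrees C, 5% CO2; agents tested alone or combined, half-log dilutions from at or near clinical Cmax, or 10 microM if Cmax unknown.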

[1] = second compound 0.01 µM, first compound 0.00316 µM
[2] = second compound 0.01 µM, first compound 0.01 µM
[3] = second compound 0.01 µM, first compound 0.0316 µM
[4] = second compound 0.01 µM, first compound 0.1 µM
[5] = second compound 0.01 µM, first compound 0.316 µM
[6] = second compound 0.01 µM, first compound 1 µM
[7] = second compound 0.0316 µM, first compound 0.00316 µM
[8] = second compound 0.0316 µM, first compound 0.01 µM
[9] = second compound 0.0316 µM, first compound 0.0316 µM
[10] = second compound 0.0316 µM, first compound 0.1 µM
[11] = second compound 0.0316 µM, first compound 0.316 µM
[12] = second compound 0.0316 µM, first compound 1 µM
[13] = second compound 0.1 µM, first compound 0.00316 µM
[14] = second compound 0.1 µM, first compound 0.01 µM
[15] = second compound 0.1 µM, first compound 0.0316 µM
[16] = second compound 0.1 µM, first compound 0.1 µM
[17] = second compound 0.1 µM, first compound 0.316 µM
[18] = second compound 0.1 µM, first compound 1 µM
[19] = second compound 0.316 µM, first compound 0.00316 µM
[20] = second compound 0.316 µM, first compound 0.01 µM
[21] = second compound 0.316 µM, first compound 0.0316 µM
[22] = second compound 0.316 µM, first compound 0.1 µM
[23] = second compound 0.316 µM, first compound 0.316 µM
[24] = second compound 0.316 µM, first compound 1 µM
[25] = second compound 1 µM, first compound 0.00316 µM
[26] = second compound 1 µM, first compound 0.01 µM
[27] = second compound 1 µM, first compound 0.0316 µM
[28] = second compound 1 µM, first compound 0.1 µM
[29] = second compound 1 µM, first compound 0.316 µM
[30] = second compound 1 µM, first compound 1 µM
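Note: spheroids exposed to compounds for seven days.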
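Throughout, for viability, T/C: 100% = DMSO vehicle control wells.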

Molecule `CCN1CCN(Cc2ccc(Nc3ncc(F)c(-c4cc(F)c5nc(C)n(C(C)C)c5c4)n3)nc2)CC1` + CNC(C)C(=O)NC1CN(S(=O)(=O)c2cccc(S(=O)(=O)N3CCC4CCC(C(=O)NC(c5ccccc5)c5ccccc5)N4C(=O)C(NC(=O)C(C)NC)C3)c2)CCC2CCC(C(=O)NC(c3ccccc3)c3ccccc3)N2C1=O has an IC50 (second compound 0.01 µM) of 207 nM, an IC50 (second compound 0.0316 µM) greater than 1000 nM and an IC50 (second compound 0.1 µM) of 742 nM. For the same molecule, the IC50 (second compound 0.316 µM) was greater than 1000 nM, the IC50 (second compound 1 µM) was greater than 1000 nM and the viability, T/C [1] was 79.9%. The viability, T/C [2] was 104%, the viability, T/C [3] was 82.6% and the viability, T/C [4] was 56.7%. For the same molecule, the viability, T/C [5] was 49.2%, the viability, T/C [6] was 26% and the viability, T/C [7] was 102%. The viability, T/C [8] was 106%, the viability, T/C [9] was 104% and the viability, T/C [10] was 82.6%. It also gave a viability, T/C [11] of 71.6%, a viability, T/C [12] of 49.9% and a viability, T/C [13] of 115%. For the same molecule, the viability, T/C [14] was 107%, the viability, T/C [15] was 116% and the viability, T/C [16] was 91.4%. It also gave a viability, T/C [17] of 71.3%, a viability, T/C [18] of 42.7% and a viability, T/C [19] of 110%. It also gave a viability, T/C [20] of 112%, a viability, T/C [21] of 103% and a viability, T/C [22] of 90.8%. For the same molecule, the viability, T/C [23] was 64.6%, the viability, T/C [24] was 50.3% and the viability, T/C [25] was 112%. It also gave a viability, T/C [26] of 112%, a viability, T/C [27] of 111% and a viability, T/C [28] of 87.5%. It also gave a viability, T/C [29] of 87.6% and a viability, T/C [30] of 68.3%.

`COc1c(OCCCN2CCOCC2)ccc2c3n(c(=NC(=O)c4cnc(N)nc4)nc12)CCN3` + CNC(C)C(=O)NC1CN(S(=O)(=O)c2cccc(S(=O)(=O)N3CCC4CCC(C(=O)NC(c5ccccc5)c5ccccc5)N4C(=O)C(NC(=O)C(C)NC)C3)c2)CCC2CCC(C(=O)NC(c3ccccc3)c3ccccc3)N2C1=O showed an IC50 (second compound 0.01 µM) of 358 nM, an IC50 (second compound 0.0316 µM) of 394 nM and an IC50 (second compound 0.1 µM) of 387 nM. The IC50 (second compound 0.316 µM) was 410 nM, the IC50 (second compound 1 µM) was 343 nM and the viability, T/C [1] was 85.2%. For the same molecule, the viability, T/C [2] was 86.4%, the viability, T/C [3] was 79.6% and the viability, T/C [4] was 88.2%. The viability, T/C [5] was 55.1%, the viability, T/C [6] was 7.8% and the viability, T/C [7] was 98.4%. It also gave a viability, T/C [8] of 92.1%, a viability, T/C [9] of 89.3% and a viability, T/C [10] of 85.3%. The viability, T/C [11] was 59.3%, the viability, T/C [12] was 8.15% and the viability, T/C [13] was 104%. For the same molecule, the viability, T/C [14] was 98.6%, the viability, T/C [15] was 86.3% and the viability, T/C [16] was 81.8%. For the same molecule, the viability, T/C [17] was 61.5%, the viability, T/C [18] was 8.94% and the viability, T/C [19] was 89.5%. For the same molecule, the viability, T/C [20] was 93.2%, the viability, T/C [21] was 97.4% and the viability, T/C [22] was 83.6%. The viability, T/C [23] was 62.6%, the viability, T/C [24] was 7.92% and the viability, T/C [25] was 102%. The viability, T/C [26] was 105%, the viability, T/C [27] was 99.8% and the viability, T/C [28] was 79%. The viability, T/C [29] was 54.5% and the viability, T/C [30] was 8.06%.

In the case of `NC(=O)C(=Cn1cnc(-c2cc(C(F)(F)F)cc(C(F)(F)F)c2)n1)c1cncnc1` + CNC(C)C(=O)NC1CN(S(=O)(=O)c2cccc(S(=O)(=O)N3CCC4CCC(C(=O)NC(c5ccccc5)c5ccccc5)N4C(=O)C(NC(=O)C(C)NC)C3)c2)CCC2CCC(C(=O)NC(c3ccccc3)c3ccccc3)N2C1=O, the IC50 (second compound 0.01 µM) is reported as 48.8 nM, the IC50 (second compound 0.0316 µM) is reported as 48.7 nM and the IC50 (second compound 0.1 µM) is reported as 49 nM. It also gave an IC50 (second compound 0.316 µM) of 49.9 nM, an IC50 (second compound 1 µM) of 48.9 nM and a viability, T/C (second compound 0.01 µM, first compound 0.000949 µM) of 96.4%. For the same molecule, the viability, T/C (second compound 0.01 µM, first compound 0.003 µM) was 95.6%, the viability, T/C (second compound 0.01 µM, first compound 0.00949 µM) was 92.8% and the viability, T/C (second compound 0.01 µM, first compound 0.03 µM) was 80.9%. For the same molecule, the viability, T/C (second compound 0.01 µM, first compound 0.0949 µM) was 7.83%, the viability, T/C (second compound 0.01 µM, first compound 0.3 µM) was 1.03% and the viability, T/C (second compound 0.0316 µM, first compound 0.000949 µM) was 96.1%. The viability, T/C (second compound 0.0316 µM, first compound 0.003 µM) was 99%, the viability, T/C (second compound 0.0316 µM, first compound 0.00949 µM) was 102% and the viability, T/C (second compound 0.0316 µM, first compound 0.03 µM) was 80.4%. The viability, T/C (second compound 0.0316 µM, first compound 0.0949 µM) was 8.3%, the viability, T/C (second compound 0.0316 µM, first compound 0.3 µM) was 0.82% and the viability, T/C (second compound 0.1 µM, first compound 0.000949 µM) was 102%. The viability, T/C (second compound 0.1 µM, first compound 0.003 µM) was 103%, the viability, T/C (second compound 0.1 µM, first compound 0.00949 µM) was 110% and the viability, T/C (second compound 0.1 µM, first compound 0.03 µM) was 81.8%. It also gave a viability, T/C (second compound 0.1 µM, first compound 0.0949 µM) of 7.31%, a viability, T/C (second compound 0.1 µM, first compound 0.3 µM) of 1.06% and a viability, T/C (second compound 0.316 µM, first compound 0.000949 µM) of 106%. It also gave a viability, T/C (second compound 0.316 µM, first compound 0.003 µM) of 110%, a viability, T/C (second compound 0.316 µM, first compound 0.00949 µM) of 107% and a viability, T/C (second compound 0.316 µM, first compound 0.03 µM) of 83.7%. The viability, T/C (second compound 0.316 µM, first compound 0.0949 µM) was 7.6%, the viability, T/C (second compound 0.316 µM, first compound 0.3 µM) was 0.59% and the viability, T/C (second compound 1 µM, first compound 0.000949 µM) was 101%. For the same molecule, the viability, T/C (second compound 1 µM, first compound 0.003 µM) was 108%, the viability, T/C (second compound 1 µM, first compound 0.00949 µM) was 110% and the viability, T/C (second compound 1 µM, first compound 0.03 µM) was 81.8%. The viability, T/C (second compound 1 µM, first compound 0.0949 µM) was 6.87% and the viability, T/C (second compound 1 µM, first compound 0.3 µM) was 0.55%.

`NC1CCC(NC2CC2c2ccccc2)CC1` (stereo not given) + CNC(C)C(=O)NC1CN(S(=O)(=O)c2cccc(S(=O)(=O)N3CCC4CCC(C(=O)NC(c5ccccc5)c5ccccc5)N4C(=O)C(NC(=O)C(C)NC)C3)c2)CCC2CCC(C(=O)NC(c3ccccc3)c3ccccc3)N2C1=O gave an IC50 (second compound 0.01 µM) greater than 100 nM, an IC50 (second compound 0.0316 µM) greater than 100 nM and an IC50 (second compound 0.1 µM) greater than 100 nM. For the same molecule, the IC50 (second compound 0.316 µM) was greater than 100 nM, the IC50 (second compound 1 µM) was greater than 100 nM and the viability, T/C (second compound 0.01 µM, first compound 0.000316 µM) was 114%. It also gave a viability, T/C (second compound 0.01 µM, first compound 0.001 µM) of 116%, a viability, T/C [1] of 111% and a viability, T/C [2] of 105%. It also gave a viability, T/C [3] of 111%, a viability, T/C [4] of 113% and a viability, T/C (second compound 0.0316 µM, first compound 0.000316 µM) of 107%. It also gave a viability, T/C (second compound 0.0316 µM, first compound 0.001 µM) of 112%, a viability, T/C [7] of 107% and a viability, T/C [8] of 113%. It also gave a viability, T/C [9] of 110%, a viability, T/C [10] of 110% and a viability, T/C (second compound 0.1 µM, first compound 0.000316 µM) of 107%. The viability, T/C (second compound 0.1 µM, first compound 0.001 µM) was 91%, the viability, T/C [13] was 109% and the viability, T/C [14] was 106%. The viability, T/C [15] was 104%, the viability, T/C [16] was 111% and the viability, T/C (second compound 0.316 µM, first compound 0.000316 µM) was 108%. For the same molecule, the viability, T/C (second compound 0.316 µM, first compound 0.001 µM) was 110%, the viability, T/C [19] was 112% and the viability, T/C [20] was 105%. The viability, T/C [21] was 108%, the viability, T/C [22] was 110% and the viability, T/C (second compound 1 µM, first compound 0.000316 µM) was 111%. It also gave a viability, T/C (second compound 1 µM, first compound 0.001 µM) of 104%, a viability, T/C [25] of 110% and a viability, T/C [26] of 98.6%. It also gave a viability, T/C [27] of 105% and a viability, T/C [28] of 109%.

Source: PubChem BioAssay AID1963447 (Molecular Pharmacology Branch, DTP, NCI, 2024)
